{
  "source": "patent US20250082651A1",
  "about": "“GANAXOLONE FOR USE IN TREATING GENETIC EPILEPTIC DISORDERS” (Marinus Pharmaceuticals, Inc., priority 2017, published 2025)",
  "key": {"dogs": {"test_system": "dogs", "experiment": "Cardiovascular safety pharmacology, single dose in dogs", "assay_type": "in vivo, dog", "conditions": "single dose of up to 15 mg/kg"}, "[1]": {"experiment": "In vitro haemolysis and human plasma compatibility"}, "rats": {"test_system": "rats", "experiment": "Oral and IV single- and repeat-dose toxicology studies", "assay_type": "in vivo, rat"}, "[2]": {"test_system": "children with PCDH19 epilepsy", "experiment": "Phase 2 open-label trial, PCDH19 cohort, seizure efficacy", "assay_type": "in vivo, human", "excerpt": "Example 3 concerns a Phase 2 Multicenter, Open-Label Proof-of-Concept Trial of ganaxolone (GNX) in cohorts of children having genetic epilepsies (PCDH19, CDKL5 LGS, and CSWS) (ClinicalTrials.gov Identifier: NCT02358538). There were 11 female children with PCDH19 epilepsy between 5-16 years old with a confirmed genetic mutation. There were 6 female and 1 male children with confirmed genetic mutations in the CDKL5 cohort. There were 10 children in the Lennox Gastaut Syndrome cohort. Two children with CSWS were enrolled into the study. The study was conducted with 12 weeks baseline, and up to 26 weeks of treatment followed by a 52 week open label treatment. The primary efficacy was the percentage change in seizure frequency per 28 days relative to baseline calculated using daily seizure diary. [Time Frame: 26 weeks]. Secondary Outcome Measures were: Clinician Global Impression of Change score as assessed by questionnaire. [Time Frame: 26 Weeks]; Patient Global Impression of Change score as assessed by questionnaire. [Time Frame: 26 Weeks]; Evaluation of safety and tolerability of open-label ganaxolone as adjunctive therapy for uncontrolled seizures in children with rare genetic epilepsies, based on adverse event log and other clinical safety assessments. [Time Frame: 26 weeks]; Responder rates [Time Frame: 26 weeks]; and Seizure free days [Time Frame: 26 weeks].\nFollowing screening and baseline evaluations, consenting patients enrolled into a 26-week study during which investigators were allowed to flexibly dose ganaxolone up to a dose of 1,800 mg/day for patients whose body weight was >30 kg, or up to 63 mg/kg/day for patients whose body-weight was <30 kg. The primary efficacy measure is % change from baseline in the 28-day seizure frequency count. Safety and tolerability were within the secondary objectives of the study.\nIn this study, oral ganaxolone suspension or capsules were administered up to a total of 63 mg/kg/day (maximum 1800 mg/day) over 2-4 weeks. About six-eight titration steps are used, depending on the size of the patient. Children larger than 30 kg may take the ganaxolone capsules. The ganaxolone oral suspension was administered through an oral dosing syringe three times daily. The ganaxolone capsules were administered twice daily. The patients experience better absorption of the ganaxolone with meals (milk).\nIn total, 11 female subjects between 4 and 15 years of age with a confirmed PCDH19 genetic mutation and uncontrolled seizures despite antiepileptic pharmacotherapy were enrolled. Ganaxolone was studied as an adjunctive treatment, administered as either PO liquid suspension or capsules according to the titration schedule in Tables 7 and 8, for 26 weeks after establishing up to 12 weeks of baseline seizure frequency. Primary and secondary endpoints were the same as for the CDKL5 deficiency disorder cohort.\nAfter establishing baseline seizure frequency, qualifying subjects entered the study and were treated with open-label ganaxolone oral suspension or ganaxolone capsules at doses up to a maximum of 1800 mg/day for up to 6 months. Maximum study participation was 94 weeks: a screening period up to 12 weeks to establish baseline seizure frequency, up to 26 weeks of treatment, a 52 week extension for subjects who benefited from ganaxolone treatment, and up to 4 weeks of down titration period. […] Refractive cases of LGS or CSWS that had prior response to steroid or ACTH could also have been enrolled.\nGanaxolone oral suspension was administered through an oral dosing syringe by parent or legal guardian 3 times daily (TID), following the morning, noon, and evening meal or snack. Each dose was separated by a minimum of 4 hours and a maximum of 8 hours. A missed dose of ganaxolone could have been taken up to 4 hours before the next scheduled dose; otherwise, the missed dose was not to be given. […]"}, "[3]": {"conditions": "human plasma following oral administration; cited from earlier work"}, "[4]": {"conditions": "individual PCDH19 subjects 1-11"}, "[5]": {"conditions": "preliminary data, 11 PCDH19 patients"}},
  "note": "Where “and” joins values, the source holds several entries; their conditions need not be identical. Equal values may be shown once.",
  "data": [
    {"smiles": "CC(=O)[C@H]1CC[C@H]2[C@@H]3CC[C@H]4C[C@](C)(O)CC[C@]4(C)[C@H]3CC[C@]12C", "note": "[Ganaxolone, 3α-hydroxy-3β-methyl-5α-pregnan-20-one]", "values": [
      {"measurement": "Effect on cardiovascular parameters", "setting": "dogs", "value": "no effect"},
      {"measurement": "Compatibility with human plasma", "setting": "[1]", "value": "compatible with human plasma"},
      {"measurement": "Haemolysis", "setting": "[1]", "value": "did not cause haemolysis"},
      {"measurement": "Most common effect in toxicology studies", "setting": "rats; oral and IV programmes", "value": "dose-related sedation"},
      {"measurement": "Findings correlated to hepatic enzyme induction", "setting": "rats; rats, 6-month study, more pronounced in females", "value": "increased liver weights and dose related hepatocellular hypertrophy"},
      {"measurement": "Median change (decrease) in 28-day seizure frequency from baseline", "setting": "[2]; PCDH19, ITT / all-comers n=11, 4 patients LOCF", "value": 26, "unit": "%"},
      {"measurement": "Median change (increase) from baseline in seizure-free days", "setting": "[2]; PCDH19, ITT n=11", "value": 14, "unit": "%"},
      {"measurement": "Median % change seizure rates, biomarker-negative subjects", "setting": "[2]; PCDH19, n=4, Allo-S>2,500 pg mL^−1, retrospective", "value": 247, "unit": "%"},
      {"measurement": "Seizure frequency at 6 months compared to baseline, biomarker-positive group", "setting": "[2]; PCDH19, p=0.02, Wilcoxon", "value": "significantly improved"},
      {"measurement": "Seizure frequency at 6 months compared to baseline, biomarker-negative (high Allo-S) group", "setting": "[2]; PCDH19, p=0.25, Wilcoxon", "value": "did not improve"},
      {"measurement": "28-day seizure frequency, sum of individual seizures and clusters, post-baseline 26-week open-label period, Mean (SD)", "setting": "[2]; PCDH19 N=11, MITT", "value": 19.85},
      {"measurement": "28-day seizure frequency, sum of individual seizures and clusters, post-baseline 26-week open-label period, Median", "setting": "[2]; PCDH19 N=11, MITT", "value": 5.42},
      {"measurement": "28-day seizure frequency, sum of individual seizures and clusters, post-baseline through Month 3 (Day 91), Mean (SD)", "setting": "[2]; PCDH19 N=11, MITT", "value": 19.82},
      {"measurement": "28-day seizure frequency, sum of individual seizures and clusters, post-baseline through Month 3 (Day 91), Median", "setting": "[2]; PCDH19 N=11, MITT", "value": 7.78},
      {"measurement": "Percent change from baseline (at Day 91), 28-day seizure frequency, sum of individual seizures and clusters, Mean (SD)", "setting": "[2]; PCDH19 N=11, MITT", "value": 52.83, "unit": "%"},
      {"measurement": "Percent change from baseline (at Day 91), 28-day seizure frequency, sum of individual seizures and clusters, Median", "setting": "[2]; PCDH19 N=11, MITT", "value": "25.98% and −25.98%"},
      {"measurement": "Percent change from baseline (at Week 26), 28-day seizure frequency, sum of individual seizures and clusters, Mean (SD)", "setting": "[2]; PCDH19 N=11, MITT", "value": 46.36, "unit": "%"},
      {"measurement": "Percent change from baseline (at Week 26), 28-day seizure frequency, sum of individual seizures and clusters, Median", "setting": "[2]; PCDH19 N=11, MITT", "value": "24.59% and −24.59%"},
      {"measurement": "% change seizure rate-12 month, Mean", "setting": "[2]; PCDH19 cohort, N=7", "value": 51.34, "unit": "%"},
      {"measurement": "% change seizure rate-12 month, Median", "setting": "[2]; PCDH19 cohort, N=7", "value": "−8.57", "unit": "%"},
      {"measurement": "Post-baseline 28-day seizure rate-12 month, Mean", "setting": "[2]; PCDH19 cohort, N=7", "value": 24.25},
      {"measurement": "Post-baseline 28-day seizure rate-12 month, Median", "setting": "[2]; PCDH19 cohort, N=7", "value": 19.44},
      {"measurement": "% change seizure rate-3 month, Mean", "setting": "[2]; PCDH19 cohort, N=11", "value": 105.59, "unit": "%"},
      {"measurement": "% change seizure rate-3 month, Median", "setting": "[2]; PCDH19 cohort, N=11", "value": "−7.37", "unit": "%"},
      {"measurement": "% change seizure rate-6 month, Mean", "setting": "[2]; PCDH19 cohort, N=11", "value": 103.72, "unit": "%"},
      {"measurement": "% change seizure rate-6 month, Median", "setting": "[2]; PCDH19 cohort, N=11", "value": "−25.68", "unit": "%"},
      {"measurement": "Post-baseline 28-day seizure rate-3-month, Mean", "setting": "[2]; PCDH19 cohort, N=11", "value": 84.51},
      {"measurement": "Post-baseline 28-day seizure rate-3-month, Median", "setting": "[2]; PCDH19 cohort, N=11", "value": 15.81},
      {"measurement": "Post-baseline 28-day seizure rate-6 month, Mean", "setting": "[2]; PCDH19 cohort, N=11", "value": 84.41},
      {"measurement": "Post-baseline 28-day seizure rate-6 month, Median", "setting": "[2]; PCDH19 cohort, N=11", "value": 15.81},
      {"measurement": "Mean percent change in 28-day total seizure frequency from baseline to Week 26", "setting": "[2]; PCDH19 cohort, PP Population", "value": 60.99, "unit": "%"},
      {"measurement": "Median percent change in 28-day total seizure frequency from baseline to Week 26", "setting": "[2]; PCDH19 cohort, PP Population", "value": 22.11, "unit": "%"},
      {"measurement": "Clinical global impression of improvement: much improved", "setting": "[2]; PCDH19 cohort, end of Week 26", "value": 2, "unit": "subjects"},
      {"measurement": "Clinical global impression of improvement: very much improved", "setting": "[2]; PCDH19 cohort, end of Week 26", "value": 2, "unit": "subjects"},
      {"measurement": "28-day individual seizure frequency, post-baseline 26-Week open-label period, Mean (SD)", "setting": "[2]; PCDH19 n=11, MITT", "value": 7.28},
      {"measurement": "28-day individual seizure frequency, post-baseline 26-Week open-label period, Median", "setting": "[2]; PCDH19 n=11, MITT", "value": 2.26},
      {"measurement": "28-day individual seizure frequency, post-baseline through Month 3 (Day 91), Mean (SD)", "setting": "[2]; PCDH19 n=11, MITT", "value": 7.29},
      {"measurement": "28-day individual seizure frequency, post-baseline through Month 3 (Day 91), Median", "setting": "[2]; PCDH19 n=11, MITT", "value": 2.49},
      {"measurement": "Percent change from baseline (at Day 91), 28-day individual seizure frequency, Mean (SD)", "setting": "[2]; PCDH19 n=11, MITT", "value": "−16.92", "unit": "%"},
      {"measurement": "Percent change from baseline (at Day 91), 28-day individual seizure frequency, Median", "setting": "[2]; PCDH19 n=11, MITT", "value": "−38.48", "unit": "%"},
      {"measurement": "Percent change from baseline (at Week 26), 28-day individual seizure frequency, Mean (SD)", "setting": "[2]; PCDH19 n=11, MITT", "value": "−23.95", "unit": "%"},
      {"measurement": "Percent change from baseline (at Week 26), 28-day individual seizure frequency, Median", "setting": "[2]; PCDH19 n=11, MITT", "value": "−34.48", "unit": "%"},
      {"measurement": "Median percent reduction in seizures", "setting": "[2]; children with PCDH19 disorder", "value": 34, "unit": "%"},
      {"measurement": "28-day seizure free days % change at 3 months", "setting": "[2]; [4]", "value": "8% and 18% (2×) and 49% and −7% and −19% and −89% and 23% and 39% and 880% and 4%"},
      {"measurement": "28-day seizure free days % change at 6 months", "setting": "[2]; [4]", "value": "7% and 27% and 14% and 32% and −3% and 890% and 5%"},
      {"measurement": "28-day seizure rate % change at 3 months", "setting": "[2]; [4]", "value": "−33.29% and 31.36% and −7.37% and −4.38% and 106.67% and 353.25% and 1020.50% and −100.00% and −78.83% and −74.17% and −52.30%"},
      {"measurement": "28-day seizure rate % change at 6 months", "setting": "[2]; [4]", "value": "−33.22% and −25.68% and −5.26% and −2.56% and 140.00% and early term (2×) and rash and sz returned and −73.47% and −53.85%"},
      {"measurement": "Patients achieving greater than 50% seizure reduction that persisted for greater than 6 months", "setting": "[2]; [5]", "value": 4, "unit": "patients"},
      {"measurement": "Patients with some degree of seizure reduction", "setting": "[2]; [5]", "value": "9 of 11"},
      {"measurement": "Half-life", "setting": "[3]", "value": "approximately 20 hours"}
    ]}
  ]
}
